This is an account of results in patent US20160009725A1, “PYRROLO- AND PYRAZOLO-TRIAZOLODIAZEPINES AS BET-PROTEIN INHIBITORS FOR TREATING HYPERPROLIFERATIVE DISEASES” (BAYER PHARMA AKTIENGESELLSCHAFT, priority 2013, published 2016).

SMILES strings stand for the structures. Read-outs that look alike come from different tables or passages of the source.

One assay has as its target T1, BRD4 (BD1) (Homo sapiens, UniProt O60885).
T1 construct: N-terminally His6-tagged BRD4 (BD1) (amino acids 67-152, longer constructs also being possible, preferably amino acids 44-168); made in house; host or cells: E. coli
The assay can be described thus: Binding assay BRD4/acetylated peptide H4 (TR-FRET protein-protein interaction assay). The source says: To assess the BRD4 binding strength of the substances described in this application, the ability thereof to inhibit the interaction between BRD4 (BD1) and acetylated histone H4 in a dose-dependent manner was quantified. For this purpose, a time-resolved fluorescence resonance energy transfer (TR-FRET) assay was used, which measures the binding between N-terminally His6-tagged BRD4 (BD1) (amino acids 67-152, longer constructs also being possible, preferably amino acids 44-168) and a synthetic acetylated histone H4 (Ac-H4) peptide with sequence […]-biotin. The recombinant BRD4 protein produced in-house according to Filippakopoulos et al., Nature, 2010, 468:1119-1123 was expressed in E. coli and purified by means of (Ni-NTA) affinity and (Sephadex G-75) size exclusion chromatography. The Ac-H4 peptide can be purchased, for example, from Biosyntan (Berlin, Germany). […] For this purpose, 100-fold concentrated solutions in DMSO were prepared by serial dilutions (1:3.4) of a 2 mM stock solution into a clear, 384-well microtitre plate (Greiner Bio-One, Frickenhausen, Germany). From this, 50 nl were transferred into a black test plate (Greiner Bio-One, Frickenhausen, Germany). […] This was followed by a 10-minute incubation step at 22° C. for the pre-equilibration of putative complexes between BRD4 and the substances. […] The mixture was then incubated in the dark at 22° C. for one hour and then at 4° C. for at least 3 hours and for no longer than overnight. The formation of BRD4/Ac-H4 complexes was determined by the measurement of the resonance energy transfer from the streptavidin-Eu cryptate to the anti-6His-XL665 antibody present in the reaction. For this purpose, the fluorescence emission was measured at 620 nm and 665 nm after excitation at 330-350 nm in a TR-FRET measuring instrument, for example a Rubystar or Pherastar (both from BMG Lab Technologies, Offenburg, Germany) or a Viewlux (Perkin-Elmer). The ratio of the emissions at 665 nm and at […] was taken as an indicator of the amount of BRD4/Ac-H4 complexes formed. The data (ratios) obtained were normalized, with 0% inhibition corresponding to the mean from the measurements for a set of controls (typically 32 data points) in which all the reagents were present. In these, in place of test substances, 50 nl of DMSO (100%) were used Inhibition of 100% corresponded to the mean from the measurements for a set of controls (typically 32 data points) in which all the reagents except BRD4 were present. The IC50 was determined by regression analysis based on a 4-parameter equation (minimum, maximum, IC50, Hill; […])).
(In TR-FRET formats the signal depends on donor and acceptor labels being close together.)

The next assay has as its system MOLM-13 cells. Description: Cell proliferation assay (alamarBlue), MOLM-13. The following applies: Homo sapiens, acute myeloid leukaemia, 96 hours incubation. The class given is cell-based. The procedure:
(§1) In accordance with the invention, the ability of the substances to inhibit cell proliferation was determined Cell viability was determined by means of the alamarBlue® reagent (Invitrogen) in a Victor ×3 Multilabel Reader (Perkin Elmer). The excitation wavelength was 530 nm and the emission wavelength […].
The MOLM-13 cells (DSMZ, ACC 554) were sown at a concentration of 4000 cells/well in 100 μl of growth medium (RPMI1640, 10% FCS) on 96-well microtitre plates.
(§2) After overnight incubation at 37° C., the fluorescence values (CI values) were determined. Then the plates were treated with various substance dilutions (1E-5 M, 3E-6 M, 1E-6 M, 3E-7 M, 1E-7 M, 3E-8 M, 1E-8 M) and incubated at 37° C. over 96 (MOLM-13, B16F10, MDA-MB-431 cells), 120 (MOLP-8 cells) or 168 (LAPC-4 cells) hours. Subsequently, the fluorescence values were determined (CO values). For the data analysis, the CI values were subtracted from the CO values and the results were compared between cells which had been treated with various dilutions of the substance or only with buffer solution. The IC50 values (substance concentration needed for 50% inhibition of cell proliferation) were calculated therefrom.
(§3) The substances were tested in the cell lines in Table 1, which represent the indications specified by way of example: […]
On the technique in general: Resazurin is reduced to fluorescent resorufin, in cell work by metabolically active cells.

The next assay has as its system LAPC-4 cells. The assay can be described thus: Cell proliferation assay (alamarBlue), LAPC-4. The settings on record: Homo sapiens, LAPC4, prostate cancer, 1 nM methyltrienolone, 168 hours incubation. Format: cell-based. The procedure:
as §1
The LAPC-4 cells (ATCC, PTA-1441TM) were sown at a concentration of 4000 cells/well in 100 μl of growth medium (RPMI1640, 2 mM L-glutamine, 10% cFCS) on 96-well microtitre plates. One day later, the LAPC-4 cells were treated with 1 nM methyltrienolone and various substance dilutions.
as §2, §3

The next assay relates to B16F10 cells. The assay can be described thus: Cell proliferation assay (alamarBlue), B16F10. The class given is cell-based. The following applies: Mus musculus, B16-F10, melanoma (BRAF wild-type), 96 hours incubation. The method, then:
as §1
The B16F10 cells (ATCC, CRL-6475) were sown at a concentration of 300-500 cells/well in 100 μl of growth medium (DMEM with phenol red, 10% FCS) on 96-well microtitre plates.
as §2, §3

Another assay has as its system MDA-MB-231 cells. The assay can be described thus: Cell proliferation assay (alamarBlue), MDA-MB-231. Format: cell-based. The settings on record: Homo sapiens, mammary carcinoma, 96 hours incubation, read-out: Breast MDA-MB-231 IC50. The method, then:
as §1
The MDA-MB-231 cells (DSMZ, ACC 732) were sown at a concentration of 4000 cells/well in 100 μl of growth medium (DMEM/Ham's F12 medium, 10% FCS) on 96-well microtitre plates.
as §2, §3

Another assay concerns MOLP-8 cells. Description: Cell proliferation assay (alamarBlue), MOLP-8. Format: cell-based. The settings on record: Homo sapiens, multiple myeloma, 120 hours incubation. The procedure: as §1
The MOLP-8 cells (DSMZ, ACC 569) were sown at a concentration of 4000 cells/well in 100 μl of growth medium (RPMI1640, 20% FCS) on 96-well microtitre plates.
as §2, §3

Where [1] appears, read: BRD4 (BD1) / acetylated histone H4 peptide, TR-FRET, read-out: IC50 (BRD4).

With `Cc1c2c(cn1C)-n1c(C)nnc1[C@H](CC(=O)N1C3CCC1CC(=O)C3)N=C2c1ccc(Cl)cc1` (single isomer, unassigned; (-)) [Example 6], the IC50 at BRD4 (BD1) (setting [1]) came out at 240 nM; in the assay on MOLM-13 cells it was 1240 nM; in the assay on LAPC-4 cells it was 520 nM; in the assay with B16F10 cells, 890 nM.

Take `Cc1c2c(cn1C)-n1c(C)nnc1[C@H](CC(=O)N1CC3CCC(C1)O3)N=C2c1ccc(Cl)cc1` (single isomer, unassigned; (-)) [Example 8]: the results for the IC50 at BRD4 (BD1) (setting [1]), with MOLM-13 cells and in the assay on LAPC-4 cells were 190 nM, 750 nM and 540 nM, respectively.

`Cc1c2c(cn1C)-n1c(C)nnc1[C@H](CC(=O)N1CC3CCC(C3)C1)N=C2c1ccc(Cl)cc1` (single isomer, unassigned; (-)) [Example 10]: the IC50 on BRD4 (BD1) (setting [1]) was found to be 310 nM; in the assay with MOLM-13 cells, 1460 nM.

On to `Cc1c2c(cn1C)-n1c(C)nnc1[C@H](CC(=O)N1CC3CCC1CC3)N=C2c1ccc(Cl)cc1` (single isomer, unassigned; (-)) [Example 14], for which the IC50 at BRD4 (BD1) (setting [1]) was 100 nM; in the assay with MOLM-13 cells, 690 nM; in the assay on LAPC-4 cells it was 520 nM.

Take `Cc1c2c(cn1C)-n1c(C)nnc1[C@H](CC(=O)N1CC3CC1CO3)N=C2c1ccc(Cl)cc1` (stereo in doubt) [Example 7, (−)-2-[(4S)-6-(4-Chlorophenyl)-1,7,8-trimethyl-4,8-dihydropyrrolo[3,4-f][1,2,4]triazolo[4,3-a][1,4]diazepin-4-yl]-1-{(1S,4S)-2-oxa-5-azabicyclo[2.2.1]hept-5-yl}ethan-1-one]: the IC50 at BRD4 (BD1) (setting [1]) is 210 nM.

For `Cc1c2c(cn1C)-n1c(C)nnc1[C@H](CC(=O)N1CC3(COC3)C1)N=C2c1ccc(Cl)cc1` [Example 1, (−)-2-[(4S)-6-(4-Chlorophenyl)-1,7,8-trimethyl-4,8-dihydropyrrolo[3,4-f][1,2,4]triazolo-[4,3-a][1,4]diazepin-4-yl]-1-(2-oxa-6-azaspiro[3.3]hept-6-yl)ethan-1-one], the IC50 is 150 nM on BRD4 (BD1) (setting [1]), 710 nM in the assay on MOLM-13 cells, 680 nM in the assay on LAPC-4 cells and 1140 nM in the assay on B16F10 cells.

Consider `Cc1c2c(cn1C)-n1c(C)nnc1[C@H](CC(=O)N1CC3(COC3)C1)N=C2c1ccccc1` [Example 2, 2-(1,7,8-Trimethyl-6-phenyl-4,8-dihydropyrrolo[3,4-f][1,2,4]triazolo[4,3-a][1,4]diazepin-4-yl)-1-(2-oxa-6-azaspiro[3.3]hept-6-yl)ethan-1-one], for which the half-maximal inhibitory concentration (IC50) at BRD4 (BD1) (setting [1]) stood at 140 nM; with MOLM-13 cells, 900 nM; in the assay on LAPC-4 cells, 920 nM; with B16F10 cells, 2010 nM.

For the compound `Cc1c2c(cn1C)-n1c(C)nnc1[C@H](CC(=O)N1CC3(CCS3(=O)=O)C1)N=C2c1ccc(Cl)cc1` [Example 3, (−)-2-[(4S)-6-(4-Chlorophenyl)-1,7,8-trimethyl-4,8-dihydropyrrolo[3,4-f][1,2,4]triazolo[4,3-a][1,4]diazepin-4-yl]-1-(1,1-dioxo-1λ^6-1-thia-6-azaspiro[3.3]hept-6-yl)ethan-1-one], the IC50 was 20 nM at BRD4 (BD1); 110 nM in the assay with MOLM-13 cells; 110 nM with LAPC-4 cells; 160 nM in the assay with B16F10 cells; 300 nM with MDA-MB-231 cells; 140 nM with MOLP-8 cells.

As to `Cc1nnc2n1-c1cn(C)nc1C(c1ccc(Cl)cc1)=N[C@H]2CC(=O)N1CC2(COC2)C1` [Example 4, 2-[(4S)-6-(4-Chlorophenyl)-1,8-dimethyl-4,8-dihydropyrazolo[3,4-f][1,2,4]triazolo[4,3-a][1,4]diazepin-4-yl]-1-(2-oxa-6-azaspiro[3.3]hept-6-yl)ethan-1-one], the IC50 on BRD4 (BD1) (setting [1]) was found to be 460 nM.

For the compound `Cc1c2c(cn1C)-n1c(C)nnc1[C@H](CC(=O)N1CCOC3(CCCCC3)C1)N=C2c1ccc(Cl)cc1` [Example 9, (−)-2-[(4S)-6-(4-Chlorophenyl)-1,7,8-trimethyl-4,8-dihydropyrrolo[3,4-f][1,2,4]triazolo[4,3-a][1,4]diazepin-4-yl]-1-(1-oxa-4-azaspiro[5.5]undec-4-yl)ethanone], the results for the 50% inhibitory concentration (IC50) on BRD4 (BD1) (setting [1]), with MOLM-13 cells and with LAPC-4 cells were 80 nM, 1050 nM and 1070 nM, respectively.

Turning to `Cc1c2c(cn1C)-n1c(C)nnc1[C@H](CC(=O)N1CC3(CCOCC3)C1)N=C2c1ccc(Cl)cc1` [Example 11, (−)-2-[(4S)-6-(4-Chlorophenyl)-1,7,8-trimethyl-4,8-dihydropyrrolo[3,4-f][1,2,4]triazolo[4,3-a][1,4]diazepin-4-yl]-1-(7-oxa-2-azaspiro[3.5]non-2-yl)ethanone], the IC50 on BRD4 (BD1) (setting [1]) is 690 nM.

Turning to `Cc1c2c(cn1C)-n1c(C)nnc1[C@H](CC(=O)N1CCC3(CC1)COC3)N=C2c1ccc(Cl)cc1` [Example 12, (−)-2-[(4S)-6-(4-Chlorophenyl)-1,7,8-trimethyl-4,8-dihydropyrrolo[3,4-f][1,2,4]triazolo[4,3-a][1,4]diazepin-4-yl]-1-(2-oxa-7-azaspiro[3.5]non-7-yl)ethanone], the IC50 on BRD4 (BD1) (setting [1]) was 120 nM; in the assay on MOLM-13 cells, 480 nM.

As to `Cc1c2c(cn1C)-n1c(C)nnc1[C@H](CC(=O)N1CCC3(COC3)C1)N=C2c1ccc(Cl)cc1` [Example 13, (−)-2-[(4S)-6-(4-Chlorophenyl)-1,7,8-trimethyl-4,8-dihydropyrrolo[3,4-f][1,2,4]triazolo[4,3-a][1,4]diazepin-4-yl]-1-(2-oxa-6-azaspiro[3.4]oct-6-yl)ethanone], the IC50 at BRD4 (BD1) (setting [1]) was determined as 70 nM; with MOLM-13 cells, 410 nM; with LAPC-4 cells it was 230 nM.

Turning to `Cc1nnc2n1-c1cn(C)nc1C(c1ccc(Cl)cc1)=N[C@H]2CC(=O)N1CC2(CCS2(=O)=O)C1` [Example 15, 2-[(4S)-6-(4-Chlorophenyl)-1,8-dimethyl-4,8-dihydropyrazolo[3,4-f][1,2,4]triazolo[4,3-a][1,4]diazepin-4-yl]-1-(1,1-dioxido-1-thia-6-azaspiro[3.3]hept-6-yl)ethanone], the IC50 on BRD4 (BD1) (setting [1]) was 800 nM; with MOLM-13 cells, 2700 nM.

The IC50 is the midpoint of a concentration-inhibition curve.
